# Test results from PMC6328430, “Radiation dosimetry of [^68Ga]PSMA-11 in low-risk prostate cancer patients” (EJNMMI Physics, 2019).
# Read-outs that look alike come from different tables or passages of the source.
# How the values were obtained:
# [1] = cited from earlier work
# [2] = PET/CT organ uptake and time-integrated activity coefficients after i.v. [^68Ga]PSMA-11; assay type: in vivo, human
# Experimental: The PET/CT scanning was performed at the University Hospital of Umeå on a Discovery 690 [18] The first session, aimed to depict the fast tracer distribution, consisted of three head-to-thigh scans commencing at times 0, 10, and 20 min post-injection, followed by a head-to-toe whole-body scan approximately 30 min post-injection. The remaining three acquisitions were all head-to-toe scans, commencing at 90 min, 180 min, and 255 min post-injection. CT scans were acquired with 120 kV, 10 mA, 0.5 s/revolution, and 2.5-mm slice thickness, except for the whole-body scan at the first session which was acquired with 30 mA (Fig. 1) to provide adequate anatomical information. All PET scans were acquired using time-of-flight mode, with 60 s per bed position, and 11 slices bed overlap. PET images, corrected for attenuation and scatter, were reconstructed using the scanner implementation of the 3D iterative ordered subset expectation maximization (OSEM) reconstruction including time-of-flight (named VuePoint HD ViP) with 2 iterations, 24 subsets, 6.4-mm post-filter, and a 70-cm field-of-view, yielding a 128 × 128 matrix (5.5 × 5.5 × 3.27 mm^3 voxels). PET images were decay-corrected to start of each scan.
# Urine was collected up to 4 h post-injection, and the total voided volume was weighed. From each voided volume, a 1-mL sample was weighed and radioactivity was measured using a well counter (NaI-scintillator), and the activity concentration in Bq/mL was calculated. The activity concentration and voided volume were used to calculate the total voided activity.
# (§1) Volumes of interest (VOIs) were delineated for the kidneys, liver, lungs, spleen, salivary glands, and total body by a medical physicist and a radiologist using RayStation (RaySearch Laboratories, Stockholm, Sweden). Using the MICE Toolkit (Nonpi Medical AB, Umea, Sweden), the median VOI activity-concentration (Cmedian(t)) was extracted and used to calculate the fraction injected activity for each imaging session. For a specific VOI, the retention, U(t), in an organ with mass M [g], expressed as fraction of injected activity, is calculated as:1 Ut=Cmediant×M/A0 where A0 is the administered activity [Bq] and t is the time after administration. […] The remaining activity was assumed to be homogeneously distributed in the rest of the body, and the remaining activity in the body could therefore be calculated by subtracting the activities in the specific organ, blood, urinary bladder content, and urine from the decay-corrected administered activity.
# (§2) The uptake was fitted to a bi-exponential or mono-exponential function of time post-injection using the software SAAM II (The Epsilon Group, Charlottesville, VA, USA). This function is used to calculate the time-integrated activity coefficient (TIAC), i.e., total number of decays per administered activity. […] The cumulated activity in the urinary bladder was calculated in a similar way, using measured data for urine plus bladder content. ICRP uses 3.5-h voiding interval for calculating absorbed doses from radiopharmaceuticals; thus, the activity in the bladder is zeroed at 3.5 and 7 h post-injection, before calculating the cumulated activity in accordance with Eq. 2.
# [3] = Blood activity clearance from venous blood samples (bi-exponential fit); assay type: in vivo, human
# Experimental: Venous blood samples were drawn at 45 min, 85 min, 175 min, and 245 min post-injection. The activity concentrations of these samples were measured in the abovementioned well counter. No metabolite analysis of the samples was performed, since this is beyond the scope of this dosimetry study.
# as §2
# TIACs for the organs used in the dose calculations can be seen in Table 1. […] The fitted blood curve was calculated on pooled normalized data and forced through the point 100% at time zero.
# [4] = Absorbed organ dose and effective dose calculation (IDAC-Dose 2.1, ICRP 133/103; Monte Carlo for eye lenses); assay type: in vivo, human
# Description: as §1, §2
# The absorbed dose to the organs was calculated using the software IDAC-Dose 2.1 [22] which uses specific absorbed fractions for photons and electron from ICRP Publication 133 [19], […]
# To calculate the dose to the lacrimal glands, spherical shape was assumed, with a mass of 0.7 g each, using the “sphere module” in IDAC-Dose 2.1. […] The lens of the eyes is a target organ in ICRP Publication 133 [19]; however, the lacrimal glands are not identified as source organs in the ICRP phantoms and an absorbed fraction is not presented in this report. Monte Carlo methods were therefore used to calculate absorbed fractions using the ICRP/ICRU voxel phantom for an adult. For the image activity concentration, the highest voxel was used, instead of the median. The reason for this is that the small size of the glands results in a significant “partial volume effect” [26].
# [5] = cited from earlier work; remark: listed apart in the source
# [6] = median of six patients, ICRP/ICRU voxel phantom organ mass
# [7] = bi-exponential fit, pooled normalized data
# [8] = six participants, sphere of 0.7 g
smiles,measurement,setting,value
C[11C](=O)O [[^11C]Acetate],Effective dose,[1],0.0049 mSv/MBq
"O=C([O-])CN(CCN(CC(=O)[O-])Cc1cc(CCC(=O)NCCCCCC(=O)NCCCC[C@H](NC(=O)N[C@@H](CCC(=O)O)C(=O)O)C(=O)O)ccc1[O-])Cc1cc(CCC(=O)O)ccc1[O-].[68Ga+3].[OH3+] [[^68Ga]PSMA-11, ^68Ga-labeled Glu-NH-CO-NH-Lys(Ahx)-HBED-CC]",Accumulation in kidneys,"[2]; intravenous injection, PET/CT",7%
same,Accumulation in liver,"[2]; intravenous injection, PET/CT",15%
same,Accumulation in salivary glands,"[2]; intravenous injection, PET/CT",0.5%
same,Accumulation in spleen,"[2]; intravenous injection, PET/CT",2%
same,"Liver TIAC, conventional method",[2]; measured organ volumes (liver mass 800–1200 g),0.10 h
same,"Time-integrated activity coefficient, Blood, Median",[2]; median of six patients,0.27 h
same,"Time-integrated activity coefficient, Urinary bladder contents, Median","[2]; median of six patients, 3.5-h voiding interval",0.11 h
same,"Time-integrated activity coefficient, Kidneys, Median",[2]; [6],0.22 h
same,"Time-integrated activity coefficient, Liver, Median",[2]; [6],0.23 h
same,"Time-integrated activity coefficient, Spleen, Median",[2]; [6],0.021 h
same,"Time-integrated activity coefficient, Salivary glands, Median","[2]; median of six patients, estimated directly from uptake data (Eq. 2)",0.020 h
same,"Time-integrated activity coefficient, Lacrimal glands, Median","[2]; median of six patients, highest voxel x factor 2, 0.7 g each",0.00053 h
same,"Time-integrated activity coefficient, Remainder, Median","[2]; median of six patients, rest of the body",0.68 h
same,"Time-integrated activity coefficient, Blood, P1",[2]; patient P1,0.32 h
same,"Time-integrated activity coefficient, Kidneys, P1",[2]; patient P1,0.22 h
same,"Time-integrated activity coefficient, Lacrimal glands, P1",[2]; patient P1,0.00075 h
same,"Time-integrated activity coefficient, Liver, P1",[2]; patient P1,0.26 h
same,"Time-integrated activity coefficient, Remainder, P1",[2]; patient P1,0.51 h
same,"Time-integrated activity coefficient, Salivary glands, P1",[2]; patient P1,0.036 h
same,"Time-integrated activity coefficient, Spleen, P1",[2]; patient P1,0.049 h
same,"Time-integrated activity coefficient, Urinary bladder contents, P1",[2]; patient P1,0.12 h
same,"Time-integrated activity coefficient, Blood, P2",[2]; patient P2,0.26 h
same,"Time-integrated activity coefficient, Kidneys, P2",[2]; patient P2,0.27 h
same,"Time-integrated activity coefficient, Lacrimal glands, P2",[2]; patient P2,0.00055 h
same,"Time-integrated activity coefficient, Liver, P2",[2]; patient P2,0.15 h
same,"Time-integrated activity coefficient, Remainder, P2",[2]; patient P2,0.76 h
same,"Time-integrated activity coefficient, Salivary glands, P2",[2]; patient P2,0.020 h
same,"Time-integrated activity coefficient, Spleen, P2",[2]; patient P2,0.012 h
same,"Time-integrated activity coefficient, Urinary bladder contents, P2",[2]; patient P2,0.094 h
same,"Time-integrated activity coefficient, Blood, P3",[2]; patient P3,0.36 h
same,"Time-integrated activity coefficient, Kidneys, P3",[2]; patient P3,0.19 h
same,"Time-integrated activity coefficient, Lacrimal glands, P3",[2]; patient P3,0.00038 h
same,"Time-integrated activity coefficient, Liver, P3",[2]; patient P3,0.22 h
same,"Time-integrated activity coefficient, Remainder, P3",[2]; patient P3,0.62 h
same,"Time-integrated activity coefficient, Salivary glands, P3",[2]; patient P3,0.021 h
same,"Time-integrated activity coefficient, Spleen, P3",[2]; patient P3,0.017 h
same,"Time-integrated activity coefficient, Urinary bladder contents, P3",[2]; patient P3,0.13 h
same,"Time-integrated activity coefficient, Blood, P4",[2]; patient P4,0.22 h
same,"Time-integrated activity coefficient, Kidneys, P4",[2]; patient P4,0.23 h
same,"Time-integrated activity coefficient, Lacrimal glands, P4",[2]; patient P4,0.00093 h
same,"Time-integrated activity coefficient, Liver, P4",[2]; patient P4,0.23 h
same,"Time-integrated activity coefficient, Remainder, P4",[2]; patient P4,0.78 h
same,"Time-integrated activity coefficient, Salivary glands, P4",[2]; patient P4,0.017 h
same,"Time-integrated activity coefficient, Spleen, P4",[2]; patient P4,0.026 h
same,"Time-integrated activity coefficient, Urinary bladder contents, P4",[2]; patient P4,0.041 h
same,"Time-integrated activity coefficient, Blood, P5",[2]; patient P5,0.25 h
same,"Time-integrated activity coefficient, Kidneys, P5",[2]; patient P5,0.19 h
same,"Time-integrated activity coefficient, Lacrimal glands, P5",[2]; patient P5,0.00052 h
same,"Time-integrated activity coefficient, Liver, P5",[2]; patient P5,0.19 h
same,"Time-integrated activity coefficient, Remainder, P5",[2]; patient P5,0.73 h
same,"Time-integrated activity coefficient, Salivary glands, P5",[2]; patient P5,0.030 h
same,"Time-integrated activity coefficient, Spleen, P5",[2]; patient P5,0.019 h
same,"Time-integrated activity coefficient, Urinary bladder contents, P5",[2]; patient P5,0.16 h
same,"Time-integrated activity coefficient, Blood, P6",[2]; patient P6,0.28 h
same,"Time-integrated activity coefficient, Kidneys, P6",[2]; patient P6,0.26 h
same,"Time-integrated activity coefficient, Lacrimal glands, P6",[2]; patient P6,0.0002 h
same,"Time-integrated activity coefficient, Liver, P6",[2]; patient P6,0.31 h
same,"Time-integrated activity coefficient, Remainder, P6",[2]; patient P6,0.63 h
same,"Time-integrated activity coefficient, Salivary glands, P6",[2]; patient P6,0.017 h
same,"Time-integrated activity coefficient, Spleen, P6",[2]; patient P6,0.022 h
same,"Time-integrated activity coefficient, Urinary bladder contents, P6",[2]; patient P6,0.050 h
same,"Biological half-life in blood, fast component",[3]; [7],6.5 min
same,"Biological half-life in blood, slow component",[3]; [7],4.4 h
same,Fraction of blood activity cleared with the 6.5 min half-life,[3]; fast component,91%
same,Fraction of blood activity cleared with the 4.4 h half-life,[3]; slow component,9%
same,"Liver dose factor, conventional method",[4]; TIAC derived with measured organ volumes (liver mass 800–1200 g),0.034 mGy/MBq
same,Effective dose per administration,[4]; administered activity of 2 MBq/kg to a person weighting 80 kg,3.5 mSv
same,Effective dose,[4]; calculated for comparison using ICRP Publication 60,0.022 mSv/MBq
same,Effective dose,"[4]; median, ICRP Publication 103, male component only",0.022 mSv/MBq
same,"Absorbed dose coefficient, Colon wall, Median",[4]; six participants,0.014 mGy/MBq
same,"Absorbed dose coefficient, Colon wall, Range",[4]; six participants,0.012–0.014 mGy/MBq
same,"Absorbed dose coefficient, Endosteum, Median",[4]; six participants,0.011 mGy/MBq
same,"Absorbed dose coefficient, Endosteum, Range",[4]; six participants,0.0095–0.011 mGy/MBq
same,"Absorbed dose coefficient, Esophagus, Median",[4]; six participants,0.014 mGy/MBq
same,"Absorbed dose coefficient, Esophagus, Range",[4]; six participants,0.011–0.015 mGy/MBq
same,"Absorbed dose coefficient, Kidneys, Median",[4]; six participants,0.24 mGy/MBq
same,"Absorbed dose coefficient, Kidneys, Range",[4]; six participants,0.20–0.28 mGy/MBq
same,"Absorbed dose coefficient, Liver, Median",[4]; six participants,0.053 mGy/MBq
same,"Absorbed dose coefficient, Liver, Range",[4]; six participants,0.038–0.071 mGy/MBq
same,"Absorbed dose coefficient, Lungs, Median",[4]; six participants,0.016 mGy/MBq
same,"Absorbed dose coefficient, Lungs, Range",[4]; six participants,0.013–0.017 mGy/MBq
same,"Absorbed dose coefficient, Red bone marrow, Median",[4]; six participants,0.015 mGy/MBq
same,"Absorbed dose coefficient, Red bone marrow, Range",[4]; six participants,0.014–0.015 mGy/MBq
same,"Absorbed dose coefficient, Salivary glands, Median",[4]; six participants,0.089 mGy/MBq
same,"Absorbed dose coefficient, Salivary glands, Range",[4]; six participants,0.074–0.15 mGy/MBq
same,"Absorbed dose coefficient, Skin, Median",[4]; six participants,0.0067 mGy/MBq
same,"Absorbed dose coefficient, Skin, Range",[4]; six participants,0.0059–0.0069 mGy/MBq
same,"Absorbed dose coefficient, Spleen, Median",[4]; six participants,0.046 mGy/MBq
same,"Absorbed dose coefficient, Spleen, Range",[4]; six participants,0.030–0.10 mGy/MBq
same,"Absorbed dose coefficient, Stomach wall, Median",[4]; six participants,0.015 mGy/MBq
same,"Absorbed dose coefficient, Stomach wall, Range",[4]; six participants,0.015–0.017 mGy/MBq
same,"Absorbed dose coefficient, Testes, Median",[4]; six participants,0.0087 mGy/MBq
same,"Absorbed dose coefficient, Testes, Range",[4]; six participants,0.0074–0.0089 mGy/MBq
same,"Absorbed dose coefficient, Thyroid, Median",[4]; six participants,0.010 mGy/MBq
same,"Absorbed dose coefficient, Thyroid, Range",[4]; six participants,0.0090–0.010 mGy/MBq
same,"Absorbed dose coefficient, Urinary bladder wall, Median",[4]; six participants,0.057 mGy/MBq
same,"Absorbed dose coefficient, Urinary bladder wall, Range",[4]; six participants,0.028–0.084 mGy/MBq
same,"Absorbed dose coefficient, Eye lenses, Median","[4]; six participants, Monte Carlo methods for lacrimal gland contribution",0.0051 mGy/MBq
same,"Absorbed dose coefficient, Lacrimal glands, Median",[4]; [8],0.11 mGy/MBq
same,"Absorbed dose coefficient, Lacrimal glands, Range",[4]; [8],0.043–0.2 mGy/MBq
same,Kidney dose,[5]; Afshar-Oromieh et al. ref 15,0.262 mGy/MBq
same,Kidney dose,[5]; Demirci et al. ref 16,0.246 mGy/MBq
same,Lacrimal glands absorbed dose,"[5]; unit density sphere model, Demirci et al. ref 16",0.04 ± 0.008 mGy/MBq
C[N+](C)(C[18F])CCO [[^18F]Choline],Effective dose,[1],0.01 mSv/MBq
